This note sets out measurements from ChEMBL document CHEMBL5465560, “Selectivity Literature for EUbOPEN Chemogenomic Library” (2024).

Molecules are shown by their SMILES.

One assay deals with Aurora kinase B (Homo sapiens, UniProt Q96GD4). Briefly: Selectivity interaction (Ambit KINOMEscan and KiNATiv profiling in Jurkat cells) EUB0000090b AURKB. Type of assay: cell-based. The following applies: at 1 µM.
The target in assay [1] is Phosphatidylinositol 4-phosphate 5-kinase type-1 gamma (Homo sapiens) (UniProt O60331). The conditions noted are these: at 10 µM.
Chain of Phosphatidylinositol 4-phosphate 5-kinase type-1 gamma (Homo sapiens) (O60331 whole entry): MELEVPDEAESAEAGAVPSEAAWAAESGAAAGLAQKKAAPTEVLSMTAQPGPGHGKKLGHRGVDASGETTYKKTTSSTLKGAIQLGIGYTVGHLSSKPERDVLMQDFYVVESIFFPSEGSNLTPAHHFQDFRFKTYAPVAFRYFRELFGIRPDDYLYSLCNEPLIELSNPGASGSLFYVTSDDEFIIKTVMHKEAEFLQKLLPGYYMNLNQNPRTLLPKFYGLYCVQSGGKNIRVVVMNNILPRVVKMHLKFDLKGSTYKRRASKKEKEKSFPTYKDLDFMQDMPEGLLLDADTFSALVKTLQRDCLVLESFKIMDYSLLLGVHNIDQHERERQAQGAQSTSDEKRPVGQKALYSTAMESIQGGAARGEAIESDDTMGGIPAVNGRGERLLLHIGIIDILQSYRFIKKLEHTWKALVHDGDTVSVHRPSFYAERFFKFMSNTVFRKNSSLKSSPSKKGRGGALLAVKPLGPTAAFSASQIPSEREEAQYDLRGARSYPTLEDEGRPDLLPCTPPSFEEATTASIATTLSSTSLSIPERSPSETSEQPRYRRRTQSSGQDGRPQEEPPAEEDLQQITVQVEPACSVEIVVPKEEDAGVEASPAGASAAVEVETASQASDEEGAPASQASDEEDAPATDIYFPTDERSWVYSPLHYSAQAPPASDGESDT
Assay [2] has as its target T1, Serine/threonine-protein kinase LATS2 (Homo sapiens) (UniProt Q9NRM7).
T1 sequence (whole entry): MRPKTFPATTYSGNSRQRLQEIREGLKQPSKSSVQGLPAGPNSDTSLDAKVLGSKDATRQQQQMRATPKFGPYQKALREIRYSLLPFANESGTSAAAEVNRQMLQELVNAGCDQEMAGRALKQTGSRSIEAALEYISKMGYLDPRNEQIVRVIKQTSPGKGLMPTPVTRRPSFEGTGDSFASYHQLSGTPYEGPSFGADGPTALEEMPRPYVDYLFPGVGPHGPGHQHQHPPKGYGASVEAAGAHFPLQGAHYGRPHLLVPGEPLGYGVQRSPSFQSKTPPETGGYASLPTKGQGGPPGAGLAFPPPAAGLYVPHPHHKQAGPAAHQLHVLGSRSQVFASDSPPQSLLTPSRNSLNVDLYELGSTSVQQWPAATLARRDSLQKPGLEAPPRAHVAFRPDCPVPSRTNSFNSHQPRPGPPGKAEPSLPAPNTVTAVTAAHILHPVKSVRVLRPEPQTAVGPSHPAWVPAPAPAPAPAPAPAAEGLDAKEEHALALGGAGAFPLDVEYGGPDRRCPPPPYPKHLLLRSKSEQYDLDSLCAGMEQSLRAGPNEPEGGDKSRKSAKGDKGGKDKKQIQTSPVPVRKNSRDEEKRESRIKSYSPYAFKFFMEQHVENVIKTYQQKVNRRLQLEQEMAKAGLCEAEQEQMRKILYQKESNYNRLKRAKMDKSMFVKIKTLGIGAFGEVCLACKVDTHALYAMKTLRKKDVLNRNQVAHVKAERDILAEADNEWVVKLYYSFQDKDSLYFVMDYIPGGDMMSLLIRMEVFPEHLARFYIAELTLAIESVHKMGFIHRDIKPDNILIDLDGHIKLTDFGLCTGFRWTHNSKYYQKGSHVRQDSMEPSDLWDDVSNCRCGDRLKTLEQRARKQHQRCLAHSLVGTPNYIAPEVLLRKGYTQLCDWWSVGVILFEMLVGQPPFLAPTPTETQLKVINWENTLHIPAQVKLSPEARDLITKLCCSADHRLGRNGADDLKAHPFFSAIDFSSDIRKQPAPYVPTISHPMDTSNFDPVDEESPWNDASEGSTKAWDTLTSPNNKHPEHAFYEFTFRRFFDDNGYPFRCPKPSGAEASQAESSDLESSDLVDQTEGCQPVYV
As to the kind of experiment: Selectivity interaction (KinomeScan (DiscoverX)) EUB0000666a LATS2. The following applies: at 10 µM.

Assay [3] addresses Histone-lysine N-methyltransferase SETDB1 (Homo sapiens) (UniProt Q15047). The following applies: at 10 µM.
The target in assay [4] is Serine/threonine-protein kinase MARK2 (Homo sapiens) (UniProt Q7KZI7). Briefly: Selectivity interaction (KinomeScan (DiscoverX)) EUB0000229b MARK2. The conditions noted are these: at 10 µM.
Chain of Serine/threonine-protein kinase MARK2 (Homo sapiens) (Q7KZI7 whole entry): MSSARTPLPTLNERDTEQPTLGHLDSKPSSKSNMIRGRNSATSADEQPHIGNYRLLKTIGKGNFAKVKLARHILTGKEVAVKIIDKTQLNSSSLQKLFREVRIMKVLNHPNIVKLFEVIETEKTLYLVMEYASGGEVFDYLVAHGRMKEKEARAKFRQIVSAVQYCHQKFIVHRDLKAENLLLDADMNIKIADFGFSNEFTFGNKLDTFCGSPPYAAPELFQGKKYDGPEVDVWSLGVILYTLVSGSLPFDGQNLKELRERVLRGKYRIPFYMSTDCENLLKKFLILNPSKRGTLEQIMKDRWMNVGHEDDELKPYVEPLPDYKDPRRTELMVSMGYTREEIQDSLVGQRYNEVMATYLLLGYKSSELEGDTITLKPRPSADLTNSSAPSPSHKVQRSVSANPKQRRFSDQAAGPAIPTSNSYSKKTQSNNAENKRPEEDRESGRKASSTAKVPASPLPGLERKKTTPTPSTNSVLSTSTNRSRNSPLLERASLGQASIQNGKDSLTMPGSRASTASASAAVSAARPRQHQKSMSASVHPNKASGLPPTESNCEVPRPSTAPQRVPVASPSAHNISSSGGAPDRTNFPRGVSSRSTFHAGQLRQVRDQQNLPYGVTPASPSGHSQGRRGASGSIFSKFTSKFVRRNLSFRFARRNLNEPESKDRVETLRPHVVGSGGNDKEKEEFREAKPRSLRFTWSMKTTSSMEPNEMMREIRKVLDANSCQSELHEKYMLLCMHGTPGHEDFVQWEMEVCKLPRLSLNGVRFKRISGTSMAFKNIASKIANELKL
Assay [5] concerns the target MAP kinase-interacting serine/threonine-protein kinase 1 (Homo sapiens) (UniProt Q9BUB5). Briefly: Selectivity interaction (KinomeScan (DiscoverX)) EUB0001079a MKNK1. The following applies: at 1 µM.
Assay [6] has as its target Non-receptor tyrosine-protein kinase TYK2 (Homo sapiens, UniProt P29597). Briefly: Selectivity interaction (KinomeScan (DiscoverX)) EUB0001079a TYK2. The conditions noted are these: at 1 µM.
The target in assay [7] is 5-hydroxytryptamine receptor 2A (Homo sapiens, UniProt P28223). Briefly: Selectivity interaction (Safety Panel 44tm (Eurofins)) EUB0000162b HTR2A. The following applies: at 10 µM.
Chain of 5-hydroxytryptamine receptor 2A (P28223 whole entry): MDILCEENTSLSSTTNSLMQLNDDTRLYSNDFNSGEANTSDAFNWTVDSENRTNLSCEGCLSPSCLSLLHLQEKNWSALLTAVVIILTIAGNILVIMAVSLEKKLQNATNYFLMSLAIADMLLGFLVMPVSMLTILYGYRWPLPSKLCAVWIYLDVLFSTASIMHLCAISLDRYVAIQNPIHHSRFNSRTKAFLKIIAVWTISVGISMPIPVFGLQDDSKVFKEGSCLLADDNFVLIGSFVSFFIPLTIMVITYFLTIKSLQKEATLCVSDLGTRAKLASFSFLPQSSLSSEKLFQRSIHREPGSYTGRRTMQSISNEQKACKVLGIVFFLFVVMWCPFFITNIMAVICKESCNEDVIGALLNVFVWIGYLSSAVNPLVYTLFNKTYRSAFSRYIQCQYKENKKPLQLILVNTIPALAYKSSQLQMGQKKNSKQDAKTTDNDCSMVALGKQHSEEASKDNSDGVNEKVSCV
Assay [8] has as its target Serine/threonine-protein kinase 10 (Homo sapiens) (UniProt O94804). As to the kind of experiment: Selectivity interaction (ActivX KiNativ screen (kinase selectivity in THP-1 cell lysates)) EUB0000639a STK10. Type of assay: subcellular. The conditions noted are these: lysate, at 0.2 µM.
The target in assay [9] is Mitogen-activated protein kinase 9 (Homo sapiens, UniProt P45984). Briefly: Selectivity interaction (ActivX KiNativ screen (kinase selectivity in THP-1 cell lysates)) EUB0000639a MAPK9. Type of assay: subcellular. The conditions noted are these: lysate, at 0.04 µM.
Chain of Mitogen-activated protein kinase 9 (P45984 whole entry, looked up): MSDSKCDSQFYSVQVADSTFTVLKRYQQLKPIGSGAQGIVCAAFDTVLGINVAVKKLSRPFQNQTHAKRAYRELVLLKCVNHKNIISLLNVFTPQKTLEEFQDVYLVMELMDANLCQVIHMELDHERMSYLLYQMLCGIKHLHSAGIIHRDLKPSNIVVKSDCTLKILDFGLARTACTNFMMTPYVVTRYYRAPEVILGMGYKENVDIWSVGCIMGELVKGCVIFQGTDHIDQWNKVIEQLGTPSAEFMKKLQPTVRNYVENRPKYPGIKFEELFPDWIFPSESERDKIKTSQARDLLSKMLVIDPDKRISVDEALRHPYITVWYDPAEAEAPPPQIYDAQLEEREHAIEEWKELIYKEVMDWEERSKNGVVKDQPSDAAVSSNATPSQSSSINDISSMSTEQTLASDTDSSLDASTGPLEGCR
Assay [10] has as its target T2, Ephrin type-A receptor 1 (Homo sapiens) (UniProt P21709).
T2 sequence (whole entry): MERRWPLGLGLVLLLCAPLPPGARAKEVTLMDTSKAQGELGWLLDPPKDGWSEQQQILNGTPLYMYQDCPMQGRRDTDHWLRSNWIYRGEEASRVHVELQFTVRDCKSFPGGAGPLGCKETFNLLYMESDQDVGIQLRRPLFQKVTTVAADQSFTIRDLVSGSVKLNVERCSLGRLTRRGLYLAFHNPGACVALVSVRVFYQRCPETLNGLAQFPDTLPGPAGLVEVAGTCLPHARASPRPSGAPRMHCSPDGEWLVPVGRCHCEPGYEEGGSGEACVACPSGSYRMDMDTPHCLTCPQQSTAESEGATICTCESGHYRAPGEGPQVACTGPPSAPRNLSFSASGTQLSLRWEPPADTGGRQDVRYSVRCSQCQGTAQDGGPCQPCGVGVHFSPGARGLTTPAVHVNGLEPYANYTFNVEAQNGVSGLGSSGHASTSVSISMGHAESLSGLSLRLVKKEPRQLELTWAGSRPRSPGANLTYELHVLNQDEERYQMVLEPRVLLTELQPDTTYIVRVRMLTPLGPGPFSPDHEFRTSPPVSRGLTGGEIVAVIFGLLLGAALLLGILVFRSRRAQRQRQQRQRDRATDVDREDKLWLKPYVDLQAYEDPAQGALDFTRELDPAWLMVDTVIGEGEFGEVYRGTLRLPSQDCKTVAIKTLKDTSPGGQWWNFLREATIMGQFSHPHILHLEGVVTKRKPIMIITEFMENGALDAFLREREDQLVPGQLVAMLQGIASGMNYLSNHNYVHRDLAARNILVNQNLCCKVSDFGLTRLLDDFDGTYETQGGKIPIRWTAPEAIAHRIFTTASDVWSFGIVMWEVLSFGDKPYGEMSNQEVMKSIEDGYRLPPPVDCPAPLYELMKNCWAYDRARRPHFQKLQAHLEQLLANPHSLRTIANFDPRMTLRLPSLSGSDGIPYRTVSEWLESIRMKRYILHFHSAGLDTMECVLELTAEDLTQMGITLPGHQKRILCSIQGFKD
Briefly: Selectivity interaction (ProQinase) EUB0000171b EPHA1.

Assay [11] addresses Mitogen-activated protein kinase 4 (Homo sapiens) (UniProt P31152). As to the kind of experiment: Selectivity interaction (KinomeScan (DiscoverX)) EUB0000092b MAPK4. The following applies: at 10 µM.
Assay [12] addresses Macrophage-stimulating protein receptor (Homo sapiens, UniProt Q04912). As to the kind of experiment: Selectivity interaction (Upstate Kinase Profiler service (Millipore)) EUB0000056c MST1R. The following applies: at 1 µM.

Chain of Serine/threonine-protein kinase 10 (Homo sapiens) (O94804 whole entry, looked up): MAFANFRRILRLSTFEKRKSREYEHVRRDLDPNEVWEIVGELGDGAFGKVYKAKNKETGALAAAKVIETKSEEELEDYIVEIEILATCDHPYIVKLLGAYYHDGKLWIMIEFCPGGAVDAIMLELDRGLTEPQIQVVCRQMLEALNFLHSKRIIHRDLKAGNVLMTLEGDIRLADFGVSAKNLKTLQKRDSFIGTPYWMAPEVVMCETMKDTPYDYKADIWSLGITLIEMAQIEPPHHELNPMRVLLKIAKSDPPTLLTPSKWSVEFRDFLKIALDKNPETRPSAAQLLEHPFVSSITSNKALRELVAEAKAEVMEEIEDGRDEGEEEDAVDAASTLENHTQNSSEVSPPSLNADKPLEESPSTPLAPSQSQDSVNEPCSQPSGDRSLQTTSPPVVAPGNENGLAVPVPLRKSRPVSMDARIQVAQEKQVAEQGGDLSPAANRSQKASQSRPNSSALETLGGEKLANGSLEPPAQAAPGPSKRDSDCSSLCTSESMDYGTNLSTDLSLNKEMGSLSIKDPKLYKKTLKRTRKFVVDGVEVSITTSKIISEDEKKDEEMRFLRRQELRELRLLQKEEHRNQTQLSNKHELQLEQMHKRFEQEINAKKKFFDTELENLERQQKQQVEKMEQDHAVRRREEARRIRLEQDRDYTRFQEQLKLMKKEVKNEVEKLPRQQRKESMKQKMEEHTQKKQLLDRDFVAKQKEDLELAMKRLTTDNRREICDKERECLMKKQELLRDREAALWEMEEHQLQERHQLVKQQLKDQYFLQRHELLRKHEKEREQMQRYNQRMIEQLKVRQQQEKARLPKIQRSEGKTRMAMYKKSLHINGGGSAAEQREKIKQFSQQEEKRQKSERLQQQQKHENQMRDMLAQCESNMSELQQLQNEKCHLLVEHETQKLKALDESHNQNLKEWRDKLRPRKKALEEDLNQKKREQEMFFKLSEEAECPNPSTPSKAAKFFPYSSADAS
Chain of Aurora kinase B (Q96GD4 whole entry): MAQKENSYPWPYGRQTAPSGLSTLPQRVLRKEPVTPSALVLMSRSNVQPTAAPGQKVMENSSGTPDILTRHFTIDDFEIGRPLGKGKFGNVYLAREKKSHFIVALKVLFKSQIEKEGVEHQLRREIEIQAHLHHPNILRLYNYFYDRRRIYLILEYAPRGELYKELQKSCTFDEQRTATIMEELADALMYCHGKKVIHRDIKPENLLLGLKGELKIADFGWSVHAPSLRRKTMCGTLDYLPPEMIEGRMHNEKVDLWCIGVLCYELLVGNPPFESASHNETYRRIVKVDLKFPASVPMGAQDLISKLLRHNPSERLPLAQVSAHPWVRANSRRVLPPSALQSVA
Chain of MAP kinase-interacting serine/threonine-protein kinase 1 (Homo sapiens) (Q9BUB5 whole entry, looked up): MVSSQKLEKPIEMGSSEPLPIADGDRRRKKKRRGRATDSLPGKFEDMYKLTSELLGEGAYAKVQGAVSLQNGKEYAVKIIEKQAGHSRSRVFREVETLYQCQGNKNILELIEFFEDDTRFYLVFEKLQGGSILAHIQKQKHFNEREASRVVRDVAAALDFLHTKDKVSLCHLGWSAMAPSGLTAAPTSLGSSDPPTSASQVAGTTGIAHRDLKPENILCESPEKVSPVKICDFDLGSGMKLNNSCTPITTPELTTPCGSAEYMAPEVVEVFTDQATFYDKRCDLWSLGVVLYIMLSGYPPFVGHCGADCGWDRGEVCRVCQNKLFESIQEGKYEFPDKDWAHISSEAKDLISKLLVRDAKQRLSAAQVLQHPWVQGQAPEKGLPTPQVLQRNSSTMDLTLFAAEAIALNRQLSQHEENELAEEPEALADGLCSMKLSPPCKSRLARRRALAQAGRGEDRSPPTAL
Chain of Mitogen-activated protein kinase 4 (Homo sapiens) (P31152 whole entry): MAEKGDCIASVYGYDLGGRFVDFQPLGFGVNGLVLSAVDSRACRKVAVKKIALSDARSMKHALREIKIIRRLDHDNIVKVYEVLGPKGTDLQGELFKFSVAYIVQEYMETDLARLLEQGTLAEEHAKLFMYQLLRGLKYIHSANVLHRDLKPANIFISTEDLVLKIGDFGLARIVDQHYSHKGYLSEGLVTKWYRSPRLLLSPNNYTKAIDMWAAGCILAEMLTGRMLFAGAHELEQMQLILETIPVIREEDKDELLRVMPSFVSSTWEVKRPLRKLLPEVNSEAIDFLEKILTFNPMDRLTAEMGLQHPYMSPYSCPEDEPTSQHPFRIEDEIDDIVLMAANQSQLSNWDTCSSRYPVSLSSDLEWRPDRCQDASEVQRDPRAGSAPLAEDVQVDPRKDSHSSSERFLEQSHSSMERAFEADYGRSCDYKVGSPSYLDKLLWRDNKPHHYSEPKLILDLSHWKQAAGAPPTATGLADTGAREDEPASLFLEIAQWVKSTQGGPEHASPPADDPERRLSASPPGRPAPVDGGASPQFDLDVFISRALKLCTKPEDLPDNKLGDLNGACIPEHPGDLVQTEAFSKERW

With `CN(C)C/C=C/C(=O)Nc1ccc(C(=O)N2CCCC(Nc3ncc(Cl)c(-c4c[nH]c5ccccc45)n3)C2)cc1` (centres undefined), the % of control at Aurora kinase B turned out to be 100%.
Consider `Cc1cc([C@@H](C)Nc2ccccc2C(=O)O)c2nc(N3CCOCC3)cc(=O)n2c1` [AZD-6482], for which, in assay [1], the % of control turned out to be 63%.
On to `O=C(NOC[C@H](O)CO)c1ccc(F)c(F)c1Nc1ccc(I)cc1F`, for which the % of control in assay [2] amounted to 74%.
In turn, `CNCCN1CCC(c2cc(CN(C)C(=O)c3cccc(Oc4ccccc4)c3)ccn2)CC1` had a % activity in assay [3] of over 90%.
As to `COc1cc(N(C)c2ccnc3ccc(C(F)(F)F)cc23)cc(OC)c1OC`, the % binding in assay [4] was 85%.
Regarding `Nc1cnc(N2CCc3cc(S(=O)(=O)Nc4c(F)cc(Cl)cc4F)cc(N4CCCC4=O)c32)nc1` [TP-020n], the % of control in [5] is 98%; in assay [6], 100%.
With `CN(C)C(=O)Cn1cc(-c2ccc(-c3cncc4ccccc34)cc2)cn1`, the % of control in assay [7] was 87%.
In the case of `CC[C@@H]1[C@H](F)C(=O)N[C@@H]1COc1nccc2cc(C(N)=O)c(OC)cc12` [ZIMLOVISERTIB], the figures for the % of inhibition in [8] and in assay [9] were -43.2% and -18.4%, respectively.
With `C=CC(=O)Nc1cccc(C(=O)Nc2ccc(Nc3cc(-c4[nH]c(SC)nc4C)ccn3)cc2)c1`, the values for the % of control in assay [10] (at 1 µM) and in [10] (at 5 µM) were 90% and 63%, respectively.
In turn, `CCC(=O)N1CCN(c2ccc(-n3c(=O)ccc4cnc5ccc(-c6cnc7ccccc7c6)cc5c43)cc2C(F)(F)F)CC1` showed a % of control in assay [11] of 80%.
On to `Cc1ccc(-c2ccc3c(ccc4sc5c(c43)NC[C@@H](C)NC5=O)n2)cn1`, for which, in [12], the % of inhibition stood at 20%.
